We go through 28 compounds from ChEMBL document CHEMBL1129877, “Design, synthesis and biological evaluation of 1,3-diaminopropanes: a new class of polyamine analogs as leishmanicidal agents” (1997).

Assay type in all cases: functional
The subject of one experiment is Leishmania donovani. The experiment in a line: In vivo anti-leishmanial activity to Leishmania donovani infected hamster after intraperitoneal dose of 50 mg/kg X 5 on day 7th. Conditions: ip.
The nature of experiment [1]: Tested in vivo for anti-leishmanial activity against Leishmania donovani infected hamster intraperitoneal dose of 25 mg/kg X 5 on day 7th. Conditions: ip.
Experiment [2] can be described thus: Tested in vivo for anti-leishmanial activity against Leishmania donovani infected hamster auratus after oral dose of 50 mg/kg X 5 on day 7th.
Experiment [3] can be described thus: Tested in vivo for anti-leishmanial activity against Leishmania donovani infected hamster intraperitoneal dose of 100 mg/kg X 5 on day 7th. The following applies: ip.
A short description of experiment [4]: Tested in vivo for anti-leishmanial activity against Leishmania donovani infected hamster auratus after oral dose of 25 mg/kg X 5 on day 7th.

What is called inhibition in vivo is the percentage by which the read-out fell short of the control. A higher inhibition in vivo goes with strong suppression.

`CCN1CCCN(CCCN2CCC(C)CC2)C1=O` displayed an inhibition in vivo at 50 mg/kg in the experiment on Leishmania donovani of 25%. With `COC(=O)/N=C(\NCCCN1CCC(c2ccccc2)CC1)NC(=O)OC`, the inhibition in vivo at 50 mg/kg in the experiment with Leishmania donovani turned out to be 66.5%. On the same count and under the same terms, under `N=C(N)NCCCN1CCC(c2ccccc2)CC1` stands 57.7%; under `CC1CCN(CCCN=C(N)N)CC1`, 62.2%. `N#CCCNCCCN1CCN(c2ccccc2)CC1` showed an inhibition in vivo at 25 mg/kg in experiment [1] of 71.2%. In the experiment with Leishmania donovani, this compound came in with an inhibition in vivo at 50 mg/kg of 71%. Turning to `NCCCN1CCCCC1`, the inhibition in vivo at 50 mg/kg with Leishmania donovani amounted to 52.4%. Same read-out and setting: the figure for `CN1CCN(CCCNCCC#N)CC1` is 78.1%; for `CN1CCN(CCCN2CCCNC2=O)CC1` it is 52.1%; for `N#CCCNCCCN1CCCCC1` it is 64.8%.

In turn, `NCCCN1CCN(c2ccccc2)CC1` had an inhibition in vivo at 50 mg/kg in the experiment with Leishmania donovani of 37.2%. The same measure, in the same setting: under `COC(=O)/N=C(\NCCCN1CCCCC1)NC(=O)OC` stands 56.2%; under `NCCCN1CCC(c2ccccn2)CC1`, 48.7%; under `CC1CCN(CCCNCCC#N)CC1`, 45%.

`NCCCN1CCOCC1`: 50 mg/kg produced 45.8% inhibition in vivo in the experiment on Leishmania donovani.

In the experiment with Leishmania donovani, `CCN1CCCN(CCCN2CCCCC2)C1=O` came in with an inhibition in vivo at 50 mg/kg of 41.2%. Still for that read-out and setting: under `O=C1NCCCN1CCCN1CCCCC1` stands 43%; under `COC(=O)/N=C(\NCCCN1CCOCC1)NC(=O)OC`, 80.2%; under `COC(=O)/N=C(\NCCCN1CCN(C)CC1)NC(=O)OC`, 85.5%.

`N#CCCNCCCN1CCC(c2ccccc2)CC1`: the inhibition in vivo at 50 mg/kg with Leishmania donovani stood at 43.4%. Same read-out and setting: the figure for `N=C(N)NCCCN1CCCCC1` is 42.1%; for `CN1CCN(CCCN)CC1` it is 66.9%; for `CC1CCN(CCCN2CCCNC2=O)CC1` it is 60.8%. Take `COC(=O)/N=C(\NCCCN1CCC(c2ccccn2)CC1)NC(=O)OC`: at 25 mg/kg the inhibition in vivo in experiment [1] was 73.2%. The inhibition in vivo at 50 mg/kg in the experiment with Leishmania donovani turned out to be 72.8%. For `COC(=O)/N=C(\NCCCN1CCC(C)CC1)NC(=O)OC`, the inhibition in vivo at 50 mg/kg in experiment [2] is 76.8%; in the experiment on Leishmania donovani, 78.4%. Moreover, the inhibition in vivo at 100 mg/kg in experiment [3] was found to be 46.4%. The inhibition in vivo at 25 mg/kg in experiment [1] came to 80.9%; in experiment [4], 77.6%. `CC1CCN(CCCN)CC1` gave an inhibition in vivo at 50 mg/kg in the experiment on Leishmania donovani of 54.5%.

For the compound `CN1CCN(CCCN=C(N)N)CC1`, in the experiment on Leishmania donovani, 50 mg/kg produced 45.1% inhibition in vivo. Same read-out and setting: the figure for `NCCCN1CCC(c2ccccc2)CC1` is 66%; for `COC(=O)/N=C(\NCCCN1CCN(c2ccccc2)CC1)NC(=O)OC` it is 73.8%.
